Test results from patent US20230023332A1, “OLEAN-PHENYLACRYLAMIDE DERIVATIVE, METHOD FOR PREPARING SAME, AND USE THEREOF” (Lunan Pharmaceutical Group Corporation, priority 2019, published 2023).
Read-outs that look alike come from different tables or passages of the source.

Experiments:
S180 ascitic tumor cells = experiment: Inhibitory effect on tumors in S180 tumor-bearing mice; assay type: in vivo, ICR mice; settings: for Tumor Mass / Tumor inhibition rate: 7 consecutive days; for Splenic index: 7 days
Method: (§1) 1) Experimental animals: 72 female ICR mice between 6 and 8 weeks of age; experimental cells: S180 ascitic tumor cells.
(§2) 8 animals were used as the normal group, and the rest of the mice were subjected to modeling by the following method.
(§3) 2) Proliferation and passaging of S180 ascitic tumor cells: S180 ascitic tumor cells cryopreserved at −80° C. were thawed in a water bath at 37° C., placed in a 12 mL centrifuge tube, to which an appropriate amount of saline was added, and centrifuged at 1200 rpm for 5 min. The supernatant was discarded, then the cells were resuspended in 300 μL of saline and intraperitoneally injected into an ICR mouse. As the mouse's abdomen swelled up, intraperitoneal injection of the cells in a second ICR mouse was performed, and the cells were ready for inoculation when the abdomen thereof swelled up.
(§4) 3) Inoculation of S180 tumor cells in the armpit of mice: S180 cells cultured to 2 passages were centrifuged and saline was added to obtain a concentration of 1×10^7 cells/mL. A volume of 100 μL of the cells were injected subcutaneously into armpit of mice. A mouse tumor-bearing model was developed.
(§5) The model mice were divided into a tumor-bearing model group, a compound I-7 5 mg/kg group, a compound I-7 15 mg/kg group, a compound I-12 5 mg/kg group, a compound I-12 15 mg/kg group, a compound I-16 5 mg/kg group, a compound I-16 15 mg/kg group and a CDDO-Me 15 mg/kg group.
(§6) There were 8 mice in each group.
(§7) 4) Dosing: the medicaments were administered intragastrically when the tumor grew out.
Compound I-7 of 5 mg/kg was administered in the compound I-7 5 mg/kg group;
compound I-7 of 15 mg/kg was administered in the compound I-7 15 mg/kg group;
compound I-12 of 5 mg/kg was administered in the compound I-12 5 mg/kg group;
compound I-12 of 15 mg/kg was administered in the compound I-12 15 mg/kg group;
compound I-16 of 5 mg/kg was administered in the compound I-16 5 mg/kg group;
compound I-16 of 15 mg/kg was administered in the compound I-16 15 mg/kg group; and
CDDO-Me of 15 mg/kg was administered in the CDDO-Me 15 mg/kg group.
(§8) An equal volume of 0.5% croscarmellose sodium was administered to the normal group and the model group.
(§9) The dosing was executed for 7 consecutive days. The mice were dissected the next day following the last dosing.
(§10) Testing items: the body weight, spleen weight and tumor weight were measured. The spleens were ground on ice, followed by red blood cell lysis and incubation with FITC-CD11b, LY6C, and LY6G antibodies for 15 min, and then tested for CD11b+LY6Chi+ and CD11b+LY6G+ with flow cytometry.

M-MDSC, PMN-MDSC = experiment: Spleen M-MDSC / PMN-MDSC by flow cytometry in S180 tumor-bearing mice; assay type: in vivo, ICR mice; settings: 7 days; for M-MDSC: CD11b+LY6Chi+; for PMN-MDSC: CD11b+LY6G+
Method: as §1, §2, §3, §4, §5, §6, §7, §8, §9, §10

[1] = tested on: rat embryonic cardiomyocytes H9C2; experiment: MTT proliferation inhibition / toxicity, H9C2; assay type: cell-based; settings: for IC50: H9C2 cardiomyocytes, MTT, 48 h, read-out: Inhibitory activity (IC50) against proliferation, H9C2; for inhibitory activity against normal cardiomyocytes H9C2 relative to CDDO-Me: fraction of the inhibitory activity of CDDO-Me
Method: (§11) The anti-tumor activity of the compounds of the present invention was determined by the method of methyl thiazolyl tetrazolium (MTT), Bardoxolone Methyl (CDDO-Me) being selected as a positive control medicament.
(§12) Instruments: ultra-clean bench (SW-CJ-1FD, AIRTECH, Suzhou Antai Airtech Co. Ltd.), constant-temperature CO2 incubator (3111, Thermo, USA), inverted biomicroscope (IX71, OLYMPUS, Japan), ELISA microplate reader (Model 680, BIO-RAD, USA), platform shaker (Kylin-bell lab Instruments), autoclave (YXO.SG4I.280, Shanghai Huaxian), and centrifuge (SIGMA).
(§13) Reagents: DMEM (GIBCO), fetal bovine serum (GIBCO), trypsin (SIGMA), and DMSO (SIGMA).
(§14) Cell strains: human non-small cell lung cancer cell strain A549, human liver cancer cell strain HepG2, human breast cancer cell strain MCF-7, human renal tubular epithelial cells HK-2, rat embryonic cardiomyocytes H9C2 (all provided by Jiangsu KeyGEN BioTECH Co., Ltd.).
(§15) Methods: the cryopreserved cell strains were resuscitated and cultured in a CO2 incubator at a constant temperature of 37° C. with liquid being changed once daily. Plating was carried out when the cell strains were in a good state in the exponential phase. 1 mL of 0.25% trypsin solution was added for digestion for 1-2 min. The cell status was observed under the microscope, and when the adherent cells became round and shrunk, the digestion solution was aspirated and 1-2 mL of a DMEM medium containing 10% fetal bovine serum was added to obtain a cell suspension, on which a cell count was performed. The amount of required cell suspension was calculated on the basis of 5×10^4 cells per well and the total number of wells. The cell suspension was inoculated on a 96-well plate at 100 μL/well, the surroundings being blocked with PBS, followed by incubation in a CO2 incubator at a constant temperature of 37° C. for 24 h.
(§16) The test medicament, positive control medicament CDDO-Me, and blank control group DMSO were prepared in DMEM media to a final concentration of 5 μM/well, each medicament being placed in 3 replicate wells, followed by incubation for 48 h. The MTT reagent was added to the 96-well plate at 10 μL/well to further incubate for 4 h. The medium in the plate was aspirated and 100 μL of DMSO was added to each well, followed by shaking on the platform shaker for 10 min such that the crystals were dissolved. The absorbance of each well was examined by the ELISA microplate reader at a wavelength of 570 nm, and the cell inhibition rate was calculated according to the formula hereinafter. The mean value of three preliminary screening results was taken as the final inhibition rate thereof.
(§17) Cell inhibition rate (%)=[(OD value of blank control−OD value of dosing cohort)/OD value of blank control group]×100%

[2] = tested on: human liver cancer cell strain HepG2; experiment: MTT proliferation inhibition, HepG2; assay type: cell-based; settings: HepG2 cells, 48 h, read-out: Inhibitory activity (IC50) against proliferation, HepG2
Method: as §11, §12, §13, §14, §15
The MTT reagent was added to the 96-well plate at 10 μL/well to further incubate for 4 h. The medium in the plate was aspirated and 100 μL of DMSO was added to each well, followed by shaking on the platform shaker for 10 min such that the crystals were dissolved. […] The mean value of three preliminary screening results was taken as the final inhibition rate thereof.
as §17

[3] = tested on: human renal tubular epithelial cells HK-2; experiment: MTT proliferation inhibition / toxicity, HK-2; assay type: cell-based; settings: for IC50: HK-2 cells, MTT, 48 h, read-out: Inhibitory activity (IC50) against proliferation, HK-2; for toxicity to human renal tubular epithelial cells HK-2: statement in words
Method: as §11, §12, §13, §14, §15, §16, §17

[4] = tested on: human non-small cell lung cancer cell strain A549; experiment: MTT proliferation inhibition, A549; assay type: cell-based; settings: A549 cells, 48 h, read-out: Inhibitory activity (IC50) against proliferation, A549
Method: as §11, §12, §13, §14, §15, §16, §17

[5] = tested on: human breast cancer cell strain MCF-7; experiment: MTT proliferation inhibition, MCF-7; assay type: cell-based; settings: 48 h, read-out: Inhibitory activity (IC50) against proliferation, MCF-7
Method: as §11, §12, §13, §14, §15, §16, §17

[6] = Homo sapiens, MCF7, MCF-7 cells

Row | IC50 ([2]; Homo sapiens) [nM] | IC50 ([4]; Homo sapiens) [nM] | IC50 [5, 6] [nM] | Compound | Tumor Mass (S180 ascitic tumor cells; 15 mg/kg intragastric) [g] | Tumor inhibition rate (S180 ascitic tumor cells; 15 mg/kg intragastric) [%] | Splenic index (S180 ascitic tumor cells; 15 mg/kg intragastric) | M-MDSC (M-MDSC, PMN-MDSC; 15 mg/kg intragastric) [%] | PMN-MDSC (M-MDSC, PMN-MDSC; 15 mg/kg intragastric) [%] | IC50 [1] [nM] | Tumor Mass (S180 ascitic tumor cells; 5 mg/kg intragastric) | Tumor inhibition rate (S180 ascitic tumor cells; 5 mg/kg intragastric) [%] | Splenic index (S180 ascitic tumor cells; 5 mg/kg intragastric) | M-MDSC (M-MDSC, PMN-MDSC; 5 mg/kg intragastric) [%] | PMN-MDSC (M-MDSC, PMN-MDSC; 5 mg/kg intragastric) [%] | IC50 ([1]; Rattus norvegicus) [nM] | inhibitory activity against normal cardiomyocytes H9C2 relative to CDDO-Me [1] | IC50 ([3]; Homo sapiens) [nM] | toxicity to human renal tubular epithelial cells HK-2 [3] | other results
1 | – | – | – | COC(=O)[C@]12CCC(C)(C)C[C@H]1[C@H]1C(=O)C=C3[C@@]4(C)C=C(C#N)C(=O)C(C)(C)[C@@H]4CC[C@@]3(C)[C@]1(C)CC2 [CDDO-Me, 2-cyano-3,12-dioxoolean-1,9(11)-dien-28-oic acid methyl ester, reference compound] | 1.67 ± 0.14 | 36.75 | 53.61 ± 4.15 10*mg/g | 1.15 ± 0.12 | 10.91 ± 1.62 | 308 ± 10 | – | – | – | – | – | – | – | – | – | IC50 [2]: 326 ± 21 nM; IC50 [3]: 335 ± 34 nM; IC50 [4]: 448 ± 12 nM; IC50 ([5]; MCF-7 cells): 728 ± 288 nM
2 | 974 ± 58 | 761 ± 32 | 1640 ± 462 | CC1(C)CC[C@]2(NC(=O)/C(C#N)=C/c3ccc(Cl)cc3)CC[C@]3(C)[C@H](C(=O)C=C4[C@@]5(C)C=C(C#N)C(=O)C(C)(C)[C@@H]5CC[C@]43C)[C@@H]2C1 [Compound I-12] | 0.66 ± 0.14 | 74.96 | 44.37 ± 5.27^###** 10*mg/g | 0.38 ± 0.23 | 4.82 ± 0.62 | – | 1.33 ± 0.11 g | 49.55 | 45.99 ± 7.68^##* 10*mg/g | 0.63 ± 0.13 | 8.86 ± 1.53 | 3140 ± 1530 | approximately 1/10 | 2430 ± 33 | lower toxicity | –
3 | 934 ± 11 | 888 ± 21 | 958 ± 209 | CC1(C)CC[C@]2(NC(=O)/C=C(\C#N)c3ccc(C(F)(F)F)cc3)CC[C@]3(C)[C@H](C(=O)C=C4[C@@]5(C)C=C(C#N)C(=O)C(C)(C)[C@@H]5CC[C@]43C)[C@@H]2C1 [Compound I-16] | 0.96 ± 0.14 | 63.60 | 46.45 ± 5.20^###* 10*mg/g | 0.40 ± 0.07 | 6.79 ± 1.55 | – | 1.49 ± 0.17 ^ g | 43.69 | 47.86 ± 5.73^###* 10*mg/g | 0.71 ± 0.08 | 8.72 ± 2.09 | 108 ± 7 | – | 618 ± 72 | lower toxicity | –

Row | Compound | IC50 ([2]; Homo sapiens) [nM] | IC50 ([4]; Homo sapiens) [nM] | IC50 [5, 6] [nM] | Tumor Mass (S180 ascitic tumor cells; 15 mg/kg intragastric) [g] | Tumor inhibition rate (S180 ascitic tumor cells; 15 mg/kg intragastric) [%] | Splenic index (S180 ascitic tumor cells; 15 mg/kg intragastric) | M-MDSC (M-MDSC, PMN-MDSC; 15 mg/kg intragastric) [%] | PMN-MDSC (M-MDSC, PMN-MDSC; 15 mg/kg intragastric) [%] | IC50 [1] [nM] | Tumor Mass (S180 ascitic tumor cells; 5 mg/kg intragastric) | Tumor inhibition rate (S180 ascitic tumor cells; 5 mg/kg intragastric) [%] | Splenic index (S180 ascitic tumor cells; 5 mg/kg intragastric) | M-MDSC (M-MDSC, PMN-MDSC; 5 mg/kg intragastric) [%] | PMN-MDSC (M-MDSC, PMN-MDSC; 5 mg/kg intragastric) [%] | IC50 ([1]; Rattus norvegicus) [nM] | inhibitory activity against normal cardiomyocytes H9C2 relative to CDDO-Me [1] | IC50 ([3]; Homo sapiens) [nM] | toxicity to human renal tubular epithelial cells HK-2 [3] | other results
4 | CC1(C)CC[C@]2(NC(=O)/C(C#N)=C/c3ccccc3)CC[C@]3(C)[C@H](C(=O)C=C4[C@@]5(C)C=C(C#N)C(=O)C(C)(C)[C@@H]5CC[C@]43C)[C@@H]2C1 [Compound I-7] | 2720 ± 36 | 315 ± 68 | 2225 ± 22 | 1.45 ± 0.12 | 45.20 | 47.03 ± 6.54^##* 10*mg/g | 0.59 ± 0.09 | 6.34 ± 1.47 | 3170 ± 1740 | 1.53 ± 0.10 ^ g | 42.17 | 48.55 ± 4.62^##* 10*mg/g | 0.68 ± 0.22 | 8.72 ± 1.13 | – | approximately 1/10 | 1780 ± 259 | lower toxicity | IC50 ([1]; Rattus norvegicus, H9c2, 48 h): 3180 ± 1740 nM
